Source: US20040266885A1, “Wood preservative compositions” (priority 2001, published 2004)
Several values for one entry are separate records, joined by “and”; a condition that tells them apart may be missing. Equal values may be shown once. Entries after “also recorded” stand apart in the source; their conditions may differ.

Key:
[1] = tested on: Macrotermes natalensis; assay: Field exposure of TBBA treated timber samples to an active termite population (based on EN 117); assay type: in vivo; details: ethanol carrier, 54 days field exposure; for Mean Termite Attack Score (0-4): SD in parenthesis, 3 replicates
Source text: The termiticidal and/or termite repellency effect of TBBA was examined by field exposure of TBBA treated timber samples to an active population of termites (Macrotermes natalensis). Much of the test detail (timber specimen species, dimensions, preservative impregnation method, scoring system etc.) was based on the European laboratory standard EN 117. This standard is used to define the toxic values of wood preservative formulations against wood destroying termites of the species Reticulitermes santonensis.
The TBBA active was formulated as a solvent-borne product for the test. (ethanol carrier). The precise preservative solutions used were 0% (ethanol only), 1% TBBA, 3% TBBA, 5% TBBA, 7% TBBA and 10% TBBA (all w/w).
AU wood block specimens were of Scots pine sapwood (Pinus sylvestris) with dimensions of 50×25×15 mm. All the test blocks were vacuum impregnated with TBBA according to the method of EN 117. Distribution of the treated blocks in the test was as follows:
TS Specimens: to determine the efficacy of the TBBA active (at different concentrations) against termite attack. SCS Specimens: to confirm absence of a termiticidal effect by the TBBA carrier (ethanol). UCS Specimens: to establish the virulence of the field population of termites.
The termite field site was established in Ginginglovu (Zululand, South Africa). The soil type of the area was a Hutton Bush Veldt soil (sandy loam soil). The site was situated within 10 m of an active termite mound on a raised flat platform of soil established some 5 cm above ground level. The test specimens were randomly positioned on this platform and carefully covered with a waterproof flat plastic roof. This plastic roof was covered with soil to allow temperature and humidity conditions within the test zone to remain representative of the locale. The test specimens were left in-situ for a period of 54 days then scored for termite attack according the system defined in European standard EN 117 as follows:
Score 1: Attempted attack

[2] = tested on: C. formosanus; assay: Laboratory termite test, modified ASTM 3345-74, soil/sand culture, NaOH carrier, blocks not leached; assay type: in vivo; parameters: Termite Attack Rating / Mean Rating (termite attack): scale not given here; details: for Mean Rating (termite attack): mean of 4 specimens; for Mean Rating (termite attack) / Termite Attack Rating: 4 weeks soil/sand culture; for Termite Attack Rating: single specimen
Experimental: A further experiment was undertaken according to the modified ASTM 3345-74 test detailed in Example 2 with the following 6 changes to the protocol:
1. The solutions tested were as follows:
2. The incubation substrate was a soil/sand mixture (1:1) to which had been added 75 ml of de-ionised water. This substrate was chosen as being more representative of the laboratory conditions under which the wild caught termites (C. formosanus) were maintained.
3. The treated timber samples were positioned on plastic mesh on top of the soil substrate. This method of placement is that used in European Standard EN 117 and is more representative of the feeding conditions of the wild caught termites maintained in the laboratory.
4. 250 termites were used in each incubation vessel.
5. The wood block specimens were not subjected to a leaching process.
6. Evidence of termite tunneling activity and mortality was determined at completion of the incubation period only (4 weeks) and no examinations were undertaken for surface activity.

## CC(C)(c1cc(Br)c(O)c(Br)c1)c1cc(Br)c(O)c(Br)c1 [TBBA, Tetrabromobisphenol A]
[1]; 1% TBBA (w/w)
  Mean Termite Attack Score (0-4): 0.00 (0.00)
[1]; 1% TBBA
  highest termite attack score out of 3 replicates: 0
[1]; 3% TBBA (w/w)
  Mean Termite Attack Score (0-4): 0.00 (0.00)
[1]; 3% TBBA
  highest termite attack score out of 3 replicates: 0
[1]; 5% TBBA (w/w)
  Mean Termite Attack Score (0-4): 0.00 (0.00)
[1]; 5% TBBA
  highest termite attack score out of 3 replicates: 0
[1]; 7% TBBA (w/w)
  Mean Termite Attack Score (0-4): 0.33 (0.58)
[1]; 7% TBBA
  highest termite attack score out of 3 replicates: 1
[1]; 10% TBBA (w/w)
  Mean Termite Attack Score (0-4): 0.00 (0.00)
[1]; 10% TBBA
  highest termite attack score out of 3 replicates: 0
[2]
  termiticidal and termite repellent activity (conclusion): significant termiticidal and termite repellent activity
[2]; 4 weeks
  termite survival / mortality at the end of the test period: the majority of the termites were still active at the end of the test period
[2]; 4 weeks, solution conc. 1%
  Tunneling Activity: Yes
  Visible Mortality: No
[2]; 4 weeks, solution conc. 3%
  Tunneling Activity: Yes
  Visible Mortality: 1-33%
[2]; 4 weeks, solution conc. 5%
  Tunneling Activity: Yes
  Visible Mortality: 1-33%
[2]; 4 weeks, solution conc. 7%
  Tunneling Activity: Yes
  Visible Mortality: 1-33%
[2]; 4 weeks, solution conc. 10%
  Tunneling Activity: Yes
  Visible Mortality: 1-33%
[2]; all concentrations used (1-10%), 4 weeks
  prevention of termite attack / restriction of termite damage: significant attack was prevented by all concentrations; also recorded: a very significant effect in restricting termite damage
[2]; mean loading, solution concentration 3% (TBBF) or 1%, not leached
  toxic value, upper (lowest concentration which protects the wood): 7.27 kg/m^3
[2]; solution conc. 1%
  Mean Rating (termite attack): 1.00
  Termite Attack Rating: 1
[2]; solution conc. 3%
  Mean Rating (termite attack): 1.00
  Termite Attack Rating: 1
[2]; solution conc. 5%
  Mean Rating (termite attack): 1.00
  Termite Attack Rating: 1
[2]; solution conc. 7%
  Mean Rating (termite attack): 0.75
  Termite Attack Rating: 1 and 0
[2]; solution conc. 10%
  Mean Rating (termite attack): 1.00
  Termite Attack Rating: 1
[2]; specimens treated with 5, 7 and 10% solutions only partially soil covered
  repellent effect (soil covering of test specimens): acting as a repellent throughout the trial period
